Legend:
Parameters in all cases: key: ‘X’ means highly active; ‘+’ means moderately active; ‘−’ means low activity
Aphis gossypii = experiment: Soil drench test (systemic activity), aphids on cotton plants; type: in vivo; settings: 10.0 ppm soil concentration by weight, aphid counts at 5 DAT vs untreated control
Text: (§1) The Soil Drench Test (Systemic Activity) Cotton and sorghum plants were established in pots. One day prior to treatment, each pot was infested with about 25 aphids of a mixed population. Cotton plants were infested with aphids and sorghum plants were infested with the greenbug. The selected compound of formula (I) was applied to the soil surface in a dilution that delivered the equivalent of 10.0 ppm soil concentration by weight. Aphid counts were obtained at 5 DAT (=days after treatment). The number of aphids on the treated plants was compared to the number of those on the untreated control plants.

Schizaphis graminum = experiment: Soil drench test (systemic activity), greenbug on sorghum plants; type: in vivo; settings: 10.0 ppm soil concentration by weight, counts at 5 DAT vs untreated control
Text: as §1

Musca domestica = experiment: Housefly bait/contact test; type: in vivo; settings: 50 ppm in sugar water bait solution, adult houseflies, mortality after 24 hours
Text: The Housefly Bait/Contact Test About 25 four to six-day-old adult houseflies were anesthetized and placed in a cage with a sugar water bait solution containing the compound. The concentration of the selected compound of formula (I) in the bait solution was 50 ppm.

A. gossypii = experiment: Foliar application (contact test) with aphids; type: in vivo, Aphis gossypii; settings: 100 ppm formulation sprayed to runoff on aphid-infested cotton plants, dead aphids counted three days after treatment
Text: Foliar Application (Contact Test) with Aphids Aphid-infested cotton plants were placed on a revolving turntable, and sprayed to runoff with a 100 ppm formulation of the selected compound of formula (I). The treated, A. gossypii-infested plants were held for three days after treatment, after which the dead aphids were counted.

Q: What does the source list for `CSc1c(C2(C)OCC(C)O2)nn(-c2c(Cl)cc(C(F)(F)F)cc2Cl)c1N` (centres unmarked) [Compound 4]?
A: Systemic activity on aphids (Aphis gossypii): X; Systemic activity on greenbugs (Schizaphis graminum): X; Activity on house flies by contact (Musca domestica): X; Foliar activity on aphids (A. gossypii): X

Q: With `C[S+]([O-])CC1COC(C)(c2nn(-c3c(Cl)cc(C(F)(F)F)cc3Cl)c(N)c2[S+](C)[O-])O1` (centres unmarked) [Compound 29] as the molecule, how does the “Systemic activity on aphids” value (Aphis gossypii) read?
A: The value was “X”.

Q: What about the “Systemic activity on greenbugs” value (Schizaphis graminum) of the same molecule?
A: Its value is “−”.

Q: What about the “Activity on house flies by contact” value (Musca domestica) of the same molecule?
A: The value was “X”.

Q: And the “Foliar activity on aphids” value (A. gossypii)?
A: The value was “X”.

From patent US6395760B1, “Pesticidal 1-arylpyrazoles” (Rhone-Poulenc Inc., priority 1997, dated 2002)
